Consider nine compounds from patent US5457099A, “Carbostyril derivatives and antiallergic agent” (Sawai Pharmaceutical Co., Ltd., priority 1992, dated 1995).

Series [1] concerns experimental asthma in guinea pigs. As to the kind of experiment: Inhibition of experimental asthma in guinea pigs. The following applies: p.o., 1 mg/kg; significance vs. control: * p < 0.05, *** p < 0.001. The series is classed as in vivo, Male Hartley guinea pigs. The method, then: Male Hartley guinea pigs (N=10) were passively sensitized by intravenous injection of guinea pig antiovalbumin antiserum (titer for 3 hours PCA: 16000 times) diluted 5 times with physiological saline at a rate of 0.2 ml/animal. After 24 hours, the animal was fixed at dorsal position under urethane anesthetization and connected with a respirator (Harvard Model 683, respiratory volume: 4-6 ml/respiration; respiratory rate: 40/minute) via an incised tracheal cannula. Then 1 mg/kg Gallamine triethiodide was intravenously administered to stop the spontaneous respiration. […] Oxatomide was administered two hours before the challenge by antigen and the test drug (compound III-2) and Ketotifen were administered orally 1 hour before the challenge.

Series [2] has as its system experimental asthma in rats. As to the kind of experiment: Inhibition of experimental asthma in rats. The series is classed as in vivo, Wistar rats. The following applies: Rattus norvegicus, po; for inhibition in vivo at 10 mg/kg: read-out: Inhibition of Experimental Asthma in rat. As to the method: (§1) Antiserum was prepared according to the method described in J. Immunol., 106, 1002 (1971). The titer (or highest effective dilution which gave a mean 48 hours PCA response of 5 mm in diameter in a rat) of the antiserum used was 1:200.
Wistar rats were passively sensitized by injection into caudal vein of 2.0ml/animal antiserum. After 24 hours, anaphylactic airway contraction caused by administration of antigen was measured by a modified Konzett and Roessler method. Briefly, the animal was fixed at dorsal position under urethane (1.5 g/kg, i.p.) anesthetization and connected with a respirator (Harvard Model 683, respiratory volume: 3-5 ml/respiration; respiratory rate: 72/minute) via an incised tracheal cannula. […] Oxatomide was administered two hours before the test, which is the optimal conditions according to Nippon Yakurigaku Zasshi (Japanese Journal of Pharmacology), 80, 261 (1982), and the other test drugs were orally administered at a rate of 0.2 ml/100 g body weight one hour before the test using a gastric tube. At the end of measurement, the trachea was blocked with a Kocher clamp and the measured values were expressed in percent taking the value at blockage as the maximum contraction (100%).

The subject of series [3] is passive cutaneous anaphylaxis (PCA) reaction in rats. As to the kind of experiment: Inhibition of PCA reaction in rats. The following applies: Rattus norvegicus, po; for inhibition in vivo at 10 mg/kg: read-out: Inhibition of PCA in rat. The series is classed as in vivo, Wistar rats. The method, then: as §1
Wistar rats were passively sensitized by intracutaneous injection of 0.05 ml antiserum diluted 75 times with physiological saline at two sheared sites of dorsal skin. After 48 hours, 0.5ml/animal of 1% Evans blue-physiological saline containing 2mg ovalbumin was administered into caudal vein to elicit the reaction. After 30 minutes, rats were sacrificed by decapitative bleeding and the dorsal skin was flayed. Dye stuff exuded at the reaction site was extracted according to the method described in Microbiol. Immunol., 22, 89 (1978). Briefly, two circular pieces of sensitized areas and one circular piece of unsensitized area (as the control) were punched at 1.8 cm diameter. The disks were placed in test tubes and treated overnight with 1 ml 1N-KOH at 37° C. Then 9ml 0.6N-H3 PO4 /acetone (5/13) was added and the mixture was thoroughly stirred and centrifuged (3000 rpm, 10 minutes). The supernatant was assayed for absorption at 620 nm. The amount of dye stuff was calculated from the standard curve previously prepared with known amounts of Evance blue. The conditions of sensitization and the amount of antigen were based on Nippon Yakurigaku Zasshi (Japanese Journal of Pharmacology),80, 261 (1982).
Test drugs and Oxatomide as a positive control were administered orally before 1 hour of elicitation through a gastric tube at 1 ml/200g body weight. In the test, groups of 6 to 7 animals and groups of 8 to 9 animals were used for test drugs and control, respectively.

Series [4] deals with blood TXA2. Kind of series: Blood thromboxane (TX)A2 in sensitized guinea pigs. The series is classed as in vivo, Hartley guinea pigs. The method, then:
(§2) Male Wistar rats of 7 weeks old and weighing about 280 g were passively sensitized with rat anti-ovalbumin anti-serum prepared according to the method of Tada and Okumura. Similarly, Hartley guinea pigs of 8 weeks old and weighing about 500 g were passively sensitized with guinea pig anti-ovalbumin antiserum prepared by immunizing with a mixed emulsion of ovalbumin and complete Freund's adjuvant (4.5:5.5) .
(§3) After 24 hours, trachea was incised under urethane ansthetiziation and cannulated with a respirator. Ovalbumin was intravenously administered to elicit the reaction while observing airway resistance according to a modified Konzett and Roessler method. Drugs were orally administered before 1 hour of elicitation of reaction. Blood samples were drawn from artery of rats and guinea pigs before the elicitaiton and after 8 minutes and 15 minutes, respectively, of the elicitation. The obtained blood samples were immediately mixed with 10 mM EDTA disodium and 0.4 mM indomethacin and centrifuged to separate blood plasma. TXB2, a metabolite of TXA2, in the blood plasma was partially purified by C18 column and determined by Enzyme Immunoassay Kit.

For a further series, the system named is Male IcR mice. Kind of series: Acute toxicity in mice. The series is classed as in vivo. The following applies: p.o. and i.p. The method, then: as §1
(§4) Male IcR mice (SPF) (Nippon SLC, weight:24-32 g) of 4 weeks age were fasted for 5 hours before the test. The test compound (III-2) was administered in the form of a suspension in 0.5% carboxymethylcellulose sodium salt (0.2 ml per 10 g). Survived and dead animals were autopsied at day 14 and immediately after the death, respectively.

Another series is described as follows: Acute toxicity in mice. The series is classed as in vivo. The following applies: mouse, in vivo, suspension in 0.5% carboxymethylcellulose sodium. The method, then: as §1, §4
For series [5], the system named is blood TXA2. As to the kind of experiment: Blood thromboxane (TX)A2 in sensitized rats. The series is classed as in vivo, Male Wistar rats. The following applies: 1 mg/kg orally. The method, then: as §2, §3

Read-outs that look alike come from different tables or passages of the source.

As to `O=c1[nH]c2ccccc2n1CCCN1CCN(C(c2ccccc2)c2ccccc2)CC1` [Oxatomide, 1-[3-{4-(diphenylmethyl)-1-piperazinyl}propyl]-1,3-dihydro-2H-benzimidazol-2-one], in series [1], the “Inhibition % of experimental asthema in guinea pig” value (shortened to “Inhibition %”) was found to be 43.7%.
For `O=c1cc(CCN2CCC(c3c[nH]c4ccccc34)CC2)c2ccccc2[nH]1` [III-2, 4-[2-[4-(1H-indol-3-yl)-1-piperidinyl]ethyl]-2-(1H)-quinolinone], the inhibition in vivo at 10 mg/kg was determined as 94.8% in series [2] and 67.4% in series [3]. For the same compound, the inhibition in vivo at 0.1 mg/kg in series [2] (other dosage/kg: 0.1 mg) is 27.5%. The compound also gave an inhibition in vivo at 0.3 mg/kg in series [2] (other dosage/kg: 0.3 mg) of 84.3%. This compound gave an inhibition in vivo at 1 mg/kg in series [2] (other dosage/kg: 1 mg) of 73%. Moreover, in series [2] (other dosage/kg: 3 mg), the inhibition in vivo at 3 mg/kg stood at 95.5%. Besides, the inhibition in vivo at 30 mg/kg in series [3] (other dosage/kg: 30 mg) was 74.6%. Also, the “Inhibition %” value in series [1] is on record as 70.3%. Further, the “Blood TXA2 before reaction” value in the series with blood TXA2 [4] (3 mg/kg orally 1 hour before elicitation, n = 5) amounted to 0.26 ± 0.05 ng/mL. For the same compound, the “Inhibition of blood TXA2 increase” value with blood TXA2 [4] (3 mg/kg orally, n = 5) was 94.4%; with blood TXA2 [5] (n = 11), 68.7%. For the same compound, the “Blood TXA2 after reaction” value with blood TXA2 [4] (3 mg/kg orally, n = 5, *p < 0.05 vs. control) turned out to be 0.28 ng/mL; in the series with blood TXA2 [5] (n = 11, ***p < 0.001 vs. control) it was 0.45 ng/mL. Further, in the series on Male IcR mice, the “Acute toxicity (in words)” value was “low toxity”. For the same compound, the LD50 at 336 h in the series “Acute toxicity in mice” (ip, read-out: LD50 for i.p.) was above 1000 mg/kg; in the series “Acute toxicity in mice” (po, read-out: LD50 for p.o.), above 3000 mg/kg.
Consider `O=c1ccc2ccccc2n1CCCN1CCC(c2c[nH]c3ccccc23)CC1` [VII-3, 1-[3-[4-(1H-indol-3-yl)-1-piperidinyl]propyl]-2(1H)-quinolinone], for which the inhibition in vivo at 10 mg/kg amounted to 76.7% in series [2] and 27.2% in series [3].
The matching figures for `Cc1ccc(-c2cc(=O)n(CCCN3CCC(c4c[nH]c5ccccc45)CC3)c3ccccc23)cc1` [VII-7, 1-[3-[4-(1H-indol-3-yl)-piperidinyl]propyl]-4-(4-methylphenyl)-2(1H)-quinolinone]: 13.1% and 18.5%.
Consider `O=c1cc(CCN2CCC(OC(c3ccccc3)c3ccccc3)CC2)c2ccccc2[nH]1` [III-11, 4-[2-[4-(diphenylmethoxy)-1-piperidinyl]ethyl]-2(1H)-quinolinone], for which the inhibition in vivo at 10 mg/kg in series [2] amounted to 35.6%; in series [3] it was 63.6%.
For `CN1CCC(=C2c3ccccc3CC(=O)c3sccc32)CC1` [Ketotifen], the “Inhibition %” value in series [1] was 50.4%.
As for `O=C1Cc2ccccc2C(=C2CCN(Cc3cc(=O)[nH]c4ccccc34)CC2)c2ccsc21` [III-13, 4,9-dihydro-4-[1-[(1,2-dihydro-2-oxo-4-quinolyl)methyl]-4-piperidinylidene]-10H-benzo[4, 5]cyclohepta[1,2-b]thiophen-10-one], the inhibition in vivo at 10 mg/kg is 42.9% in series [2] and 24.2% in series [3].
On to `Cc1cc(C)c2c(CCN3CCC(c4c[nH]c5ccccc45)CC3)cc(=O)[nH]c2c1` [III-27, 5,7-dimethyl-4-[2-[4-(1H-indol-3-yl)-1-piperidinyl]ethyl]-2(1H)-quinolinone], for which the figures for the inhibition in vivo at 10 mg/kg in series [2] and in series [3] were 65.8% and 70.9%, respectively.
For `Nc1ccc2[nH]c(=O)cc(CCN3CCC(c4c[nH]c5ccccc45)CC3)c2c1` [III-20, 6-amino-4-[2-[4-(1H-indol-3-yl)-1-piperidinyl]ethyl]-2(1H)-quinolinone], the inhibition in vivo at 10 mg/kg in series [2] amounted to 89.2%; in series [3] it was 18.5%.
